This note sets out measurements from ChEMBL document CHEMBL1201862, “PubChem BioAssay data set” (2004).

Test systems include XF498; M19-MEL; HOP-18; DMS-273; LXFL 529; RXF 631; DMS-114; SNB-78; DLD-1.
Common to all, as to assay: growth of human tumour cells (NCI), 48 h

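Dose response: 5 concentrations. Exposure: 48 h. Format: 96-well plates. Endpoint: linear interpolation; highest concentration if not reached. Here, GI50 denotes the concentration required for 50% inhibition of growth.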 Calls of active or inactive are those of the source. Cut-off read from the data, not from the text of the source: active = GI50 up to about 1.1 µM and inactive = higher.

Consider `Cc1c(C(=O)C/C(=N/NC(=O)C[n+]2ccccc2)C(=O)Nc2ccccc2)[n+]([O-])c2ccccc2[n+]1[O-]`, for which the GI50 in the assay on XF498, in the assay on M19-MEL, with HOP-18, with DMS-273, in the assay with LXFL 529 and in the assay with RXF 631 was > 100 µM (inactive) each time. The GI50 in the assay on DMS-114, with SNB-78 and in the assay on DLD-1 was > 100 µM (inactive) throughout.

As to `CCC(CO)COC(=O)/C=C/C(=O)OCC(CC)CO` (stereo not given), the GI50 in the assay with XF498 is > 100 µM (inactive); in the assay on M19-MEL, > 100 µM (inactive); in the assay on HOP-18 it was > 100 µM (inactive); in the assay with DMS-273 it was > 100 µM (inactive); in the assay on LXFL 529 it was 78.7 µM (inactive); with RXF 631 it was > 100 µM (inactive). In addition, the figures for the GI50 with DMS-114, in the assay with SNB-78 and with DLD-1 were > 100 µM (inactive), > 100 µM (inactive) and > 85.9 µM (inactive), respectively.

Consider `CC(=O)N1C(=O)C(=O)c2cc(Cl)ccc21`, for which the GI50 is 0.234 µM (active) with XF498; > 100 µM (inactive) with M19-MEL; > 100 µM (inactive) in the assay with HOP-18; > 100 µM (inactive) with DMS-273; > 100 µM (inactive) in the assay on LXFL 529; > 100 µM (inactive) with RXF 631. Further, the GI50 with DMS-114, with SNB-78 and in the assay with DLD-1 was > 100 µM (inactive) in each case.

Turning to `C=C1CC(CCCl)(c2ccccc2)OC1=O` (stereo not given), the GI50 is 41.2 µM (inactive) in the assay with XF498; 34.7 µM (inactive) in the assay with M19-MEL; > 42.9 µM (inactive) in the assay on HOP-18; 34.7 µM (inactive) with DMS-273; 20 µM (inactive) in the assay with LXFL 529; > 42.7 µM (inactive) with RXF 631. For the same compound, the GI50 in the assay with DMS-114 is 37.9 µM (inactive); with SNB-78 it was 42.2 µM (inactive); with DLD-1, 20.1 µM (inactive).

On to `Cn1cnc([N+](=O)[O-])c1Sc1nnnn1-c1ccccc1`, for which the GI50 with XF498 is 11.6 µM (inactive); in the assay on M19-MEL, 12.1 µM (inactive); in the assay on HOP-18, 1.58 µM (inactive); in the assay on DMS-273 it was 15 µM (inactive); with LXFL 529 it was 4.27 µM (inactive); in the assay on RXF 631 it was 14.2 µM (inactive). Further, the GI50 in the assay on DMS-114 is 15.5 µM (inactive); in the assay with SNB-78, 13.7 µM (inactive); with DLD-1, 6.68 µM (inactive).
